Measurements: ChEMBL document CHEMBL1201862, “PubChem BioAssay data set” (2004)
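Step 1: Grow cells in 96-well plates. Step 2: Expose to compound for 48 hours at 5 concentrations. Step 3: Interpolate endpoints linearly; if unreached, use highest concentration. GI50 marks 50% less growth.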 The source made the active and inactive calls. Rule as the data show it: active = GI50 up to about 1.1 µM and inactive = higher.

What was measured:
Assay in all cases: NCI-60 cell line screen, 48 h
DMS-114 = tested on: DMS-114
HOP-18 = tested on: HOP-18
DLD-1 = tested on: DLD-1
M19-MEL = tested on: M19-MEL
LXFL 529 = tested on: LXFL 529
DMS-273 = tested on: DMS-273
KM-20L2 = tested on: KM-20L2
SNB-78 = tested on: SNB-78
RXF 631 = tested on: RXF 631

Measured: GI50

O=C(NC(=S)Nc1ccccc1)c1ccc([N+](=O)[O-])cc1
inactive: DMS-114 17.5 µM | HOP-18 > 100 µM | DLD-1 47.9 µM | M19-MEL > 100 µM | LXFL 529 > 100 µM | DMS-273 60.3 µM | KM-20L2 > 100 µM | SNB-78 > 100 µM

Cc1c(C(=O)C/C(=N\O)C(=O)Nc2cc(Cl)c(Cl)cc2Cl)[n+]([O-])c2ccccc2[n+]1[O-]
inactive: DMS-114 4.37 µM | HOP-18 20.7 µM | DLD-1 22 µM | M19-MEL 2.2 µM | LXFL 529 15 µM | DMS-273 17.1 µM | KM-20L2 15.9 µM | SNB-78 41.3 µM

COc1cc(C(C)c2cc3c(cc2OCCN)OCO3)cc(OC)c1OC (configuration not stated)
inactive: DMS-114 52 µM | DLD-1 36 µM | M19-MEL 39.8 µM | RXF 631 > 100 µM | LXFL 529 75.5 µM | DMS-273 > 100 µM | KM-20L2 28.8 µM

CCNC(=O)/C(=C/c1ccc(OC)cc1)c1cc(OC)c(OC)c(OC)c1
inactive: DMS-114 11.7 µM | HOP-18 > 100 µM | DLD-1 14.7 µM | M19-MEL 14.8 µM | RXF 631 32.5 µM | LXFL 529 24.2 µM | DMS-273 3.47 µM | KM-20L2 3.91 µM | SNB-78 23.1 µM

COc1ccc(N2C(=O)C3c4[nH]c5ccc(OC)cc5c4C4CCC(C(C)(C)C)CC4C3C2=O)cc1 (configuration not stated)
inactive: DMS-114 34.4 µM | HOP-18 44.1 µM | DLD-1 64.7 µM | M19-MEL 48.5 µM | LXFL 529 17.6 µM | DMS-273 10.2 µM | KM-20L2 86.9 µM | SNB-78 3.86 µM

CN(CCc1ccccn1)c1nc(=[N+](C)C)ss1
inactive: DMS-114 > 100 µM | HOP-18 > 100 µM | DLD-1 > 100 µM | M19-MEL 78.5 µM | RXF 631 > 100 µM | LXFL 529 72.9 µM | DMS-273 > 100 µM | KM-20L2 > 100 µM | SNB-78 > 100 µM

Cc1nnc2n1N=C(CC(=O)c1ccc(O)cc1O)CN2N
inactive: DMS-114 19.6 µM | DLD-1 > 100 µM | M19-MEL 91.4 µM | RXF 631 > 100 µM | LXFL 529 > 100 µM | DMS-273 40.4 µM | KM-20L2 > 100 µM | SNB-78 > 100 µM

O=C(O)C1CCC(=O)N1C(=O)C(Cl)c1ccccc1 (configuration not stated)
inactive: DMS-114 > 100 µM | HOP-18 > 100 µM | DLD-1 > 100 µM | M19-MEL > 100 µM | RXF 631 > 100 µM | LXFL 529 > 100 µM | DMS-273 > 100 µM | KM-20L2 > 100 µM | SNB-78 > 100 µM

Cn1c(C2CCCc3c2c2ccccc2n3C)cc2ccccc21 (configuration not stated)
inactive: DMS-114 34.3 µM | HOP-18 8.02 µM | DLD-1 126 µM | M19-MEL 85.5 µM | RXF 631 126 µM | LXFL 529 121 µM | DMS-273 57.3 µM | KM-20L2 179 µM

CCCCCCCCCCCC(=O)CC(=O)c1c(O)cccc1O
inactive: DMS-114 18.8 µM | HOP-18 16.4 µM | DLD-1 17.7 µM | M19-MEL 18.3 µM | LXFL 529 18.2 µM | DMS-273 18.4 µM | KM-20L2 20.5 µM | SNB-78 19.3 µM
